Measured values published in patent US6881740B1, “Pharmaceutical agents” (Monash University, priority 1998, dated 2005).

Assays:
[1] = target: NMDA/polyamine sites (polyamine-sensitive [3H]-ifenprodil binding, rat cerebral cortex membranes) (Rattus norvegicus, UniProt P35439+Q00960); experiment: NMDA/polyamine site [3H]-ifenprodil binding assay; details: [3H]-ifenprodil 4 nM, rat cerebral cortex homogenate
From the text: Ifenprodil and eliprodil have been reported as antiischaemic agents (Gotti et al., 1988) and both compounds have been reported to associate with the polyamine sensitive site of the NMDA receptor complex (Carter et al., 1989 and 1990; Reynolds et al., 1989; and Robinson et al., 1990). […] These agents bind independently of the NMDA ion channel (Carter et al., 1991; Reynolds et al., 1989), appear not to cause behavioural effects (Carter et al., 1991), and may target specific heteromeric NMDA receptors (Williams, 1993; Nicola et al., 1994) uniquely distributed in forebrain regions (Standaert et al., 1994) affected in ischaemia and head trauma. […] Accordingly, compounds of the present invention are capable of binding to the NMDA receptor complex and providing a neuroprotective effect, or otherwise providing benefit in other conditions related to NMDA receptors.
Briefly, crude membrane suspensions containing 10% rat cerebral cortex were prepared in aqueous 50 mM Tris-HCl buffer (pH 7.4, 4° C.), using a Polytron homogeniser.
Nonspecific binding was determined using spermine (10 μM).
The sigma receptor ligand 3PPP(+)-3-(3-hydroxyphenyl)-N-propyl-piperidine (100 μM) was included in all tubes to block binding to sigma receptors. […] Filterpapers were collected, combined with scintillant and bound radioactivity determined using a Packard Scintillation counter.

[2] = system: murine neocortical neurones; experiment: NMDA-induced toxicity in neuronal cultures (MTT assay); type: cell-based; details: Mus musculus, NMDA 600 μM, 1 h, compound added 30 min prior, cultures at 8 days in vitro, read-out: EC50 for inhibition of NMDA-induced toxicity
Description: Assay for NMDA-induced Toxicity in Neuronal Cultures
Neuronal cell death was assessed using a 3-(4,5-dimethylthiazol-2-yl)-2,5-diphenyltetrazoliurn bromide (MTT) assay in which NMDA-induced cellular changes are reflected as altered mitochondrial activity (Ankarcrona et al., 1995), as estimated by the formation of a formazan dye, which is measured spectrophotometrically. The procedure employed is essentially that of Roehlm et al. (1991) with minor modifications as previously described elsewhere in work from our laboratories Larm et al. (1996).
Primary cultures of murine neocortical neurones were established as described elsewhere (Larm et al., 1996). The effects of experimental compounds were tested in the cultures at 8 days in vitro. Exposure to NMDA (600 μM, 1 h) and other compounds was performed in an humidified incubator (5% CO2, 8% O2) at 37° C. in anti-oxidant free medium with compounds under evaluation being added 30 min prior to NMDA. For these conditions the culture medium was modified by omitting the following components: D,L- -tocopherol, D,L- -tocopherol acetate, catalase, superoxide dismutase and L-glutamine. Other details are described in Larm et al. (1996). Absorbence was read at 570 nm using a Ceres UV900 microplate reader. Control cultures were included in each experiment containing either vehicle alone or vehicle plus compound. […]

[3] = system: cultured cerebellar granule cells; experiment: Veratridine induced toxicity in neuronal cultures (MTT assay); details: Mus musculus
Description: Veratridine Induced Toxicity in Neuronal Cultures
The cells were pre-incubated with drug for 30 minutes prior to a 60 minute exposure to veratridine (100 μM). Drug remained in the medium during exposure to veratridine. Cell viability was assessed at 18 hours by MTT assay.

NMDA/polyamine sites (polyamine-sensitive [3H]-ifenprodil binding, rat cerebral cortex membranes), sequence (Q00960 27-1482, other chains not shown): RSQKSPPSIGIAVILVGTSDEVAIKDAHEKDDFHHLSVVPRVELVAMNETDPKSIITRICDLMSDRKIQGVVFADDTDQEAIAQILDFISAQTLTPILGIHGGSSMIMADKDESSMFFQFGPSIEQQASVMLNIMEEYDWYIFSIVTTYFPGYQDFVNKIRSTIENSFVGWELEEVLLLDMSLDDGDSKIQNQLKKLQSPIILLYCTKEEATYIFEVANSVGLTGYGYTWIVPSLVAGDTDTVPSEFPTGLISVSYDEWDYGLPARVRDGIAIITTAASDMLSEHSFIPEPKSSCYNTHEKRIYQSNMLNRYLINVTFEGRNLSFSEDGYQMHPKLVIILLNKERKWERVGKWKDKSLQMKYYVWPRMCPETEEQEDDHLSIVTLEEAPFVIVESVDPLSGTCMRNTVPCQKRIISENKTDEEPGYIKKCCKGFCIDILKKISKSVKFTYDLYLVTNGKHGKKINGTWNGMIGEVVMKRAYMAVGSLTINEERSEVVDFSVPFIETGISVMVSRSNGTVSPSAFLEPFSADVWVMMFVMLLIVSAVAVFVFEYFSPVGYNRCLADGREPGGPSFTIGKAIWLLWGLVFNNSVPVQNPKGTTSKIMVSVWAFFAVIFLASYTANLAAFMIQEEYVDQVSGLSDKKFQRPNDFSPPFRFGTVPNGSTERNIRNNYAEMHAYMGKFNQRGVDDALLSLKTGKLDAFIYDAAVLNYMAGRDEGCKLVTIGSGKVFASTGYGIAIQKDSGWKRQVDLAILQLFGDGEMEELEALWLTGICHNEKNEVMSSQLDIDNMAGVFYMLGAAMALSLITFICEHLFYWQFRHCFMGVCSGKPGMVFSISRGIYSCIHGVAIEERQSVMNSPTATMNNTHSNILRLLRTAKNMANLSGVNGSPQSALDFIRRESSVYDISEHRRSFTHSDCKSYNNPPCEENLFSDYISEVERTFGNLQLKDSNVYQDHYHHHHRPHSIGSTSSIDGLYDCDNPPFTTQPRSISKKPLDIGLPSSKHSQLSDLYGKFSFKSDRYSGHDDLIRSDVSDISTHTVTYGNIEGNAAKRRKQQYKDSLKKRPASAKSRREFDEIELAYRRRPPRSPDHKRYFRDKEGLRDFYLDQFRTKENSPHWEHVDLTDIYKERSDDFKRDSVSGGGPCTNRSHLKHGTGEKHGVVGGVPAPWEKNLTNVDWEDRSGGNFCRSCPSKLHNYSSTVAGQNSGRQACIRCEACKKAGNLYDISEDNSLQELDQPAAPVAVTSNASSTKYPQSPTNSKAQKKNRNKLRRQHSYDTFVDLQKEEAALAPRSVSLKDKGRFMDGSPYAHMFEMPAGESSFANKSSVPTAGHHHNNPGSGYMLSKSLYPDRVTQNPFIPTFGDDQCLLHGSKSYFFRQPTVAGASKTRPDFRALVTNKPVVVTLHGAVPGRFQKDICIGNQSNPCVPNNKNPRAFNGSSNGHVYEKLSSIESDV

SMILES: OC(Cc1cc(N2CCCC2)nc(N2CCCC2)n1)c1cccc(OC(F)(F)F)c1 (stereo not shown) [Compound 17, 6-[2-hydroxy-2-(3-trifluoromethoxyphenyl)ethyl]-2,4-di-N-pyrrolidinylpyrimidine]
- IC50 ([1]; 2 h at 4° C., 3PPP 100 μM to block sigma sites): 4330 ± 1560 nM
- Ki ([1]; competition curves analysed with Radlig): 1400 ± 47 nM
- EC50 [2]: 1700 nM
- EC50 [3]: 1700 nM
